Series [1] relates to A549 human lung cancer cell line. Nature of the series: Cytotoxicity, CCK-8 cell viability assay. It is filed as cell-based. To be noted: for Cytotoxic activity against A549 cells at 40 μM: screening (Figure S46); for IC50: Homo sapiens, A549 cells, CCK-8 assay, 24 h drug treatment. The protocol: (§1) All the isolated meroterpenoids were evaluated for their cytotoxic activity against three human lung cancer cell lines (H1975, PC9, A549). […] Besides, 2 and 5 are also found to be active against H1975 and PC9 cells at 40 μM. With this, the cytotoxic potency of 2 and 5 toward three cancer cell lines were further determined using the CCK-8 assay.
(§2) The human NSCLC cell line (NCL-H1975) was purchased from Shanghai Cell Bank of Chinese Academy of Sciences, (Shanghai, China). PC9 and A549 were obtained from American Type Culture Collection (ATCC, Manassas, VA, USA). Cells were cultured in DMEM (Gibco, Grand Island, NY, USA) with 4.5 g/L glucose and 10% FBS (Gibco, Grand Island, NY, USA). Erlotinib used in the experiments were purchased from Selleck (Selleck Chemicals, Houston, TX, USA). Cytotoxicity was determined using the previously described method. Three human lung cancer cell lines were incubated in 96-well plates (5000 cells/well) respectively to attach overnight and then exposed to drug treatments for additional 24 h. And the CCK solution was added, after 2 h of incubation, the absorbance was measured at a wavelength of 450 nm. Cell viability was measured by a TransDetect® Cell Counting Kit (TransGen Biotech, Beijing, China). The IC50 values were calculated using the GraphPad Prism 5.0 (GraphPad Software, San Diego, CA, USA).

Series [2] relates to PC9 human lung cancer cell line. Nature of the series: Cytotoxicity, CCK-8 cell viability assay. The series is classed as cell-based. The settings on record: for Cytotoxic activity against PC9 cells at 40 μM: screening (Figure S46); for IC50: Homo sapiens, PC-9, PC9 cells, CCK-8 assay, 24 h drug treatment. The protocol:
as §1, §2
Background: Tetrazolium dyes change colour on reduction, which living cells bring about.

Series [3] relates to H1975 human lung cancer cell line. Nature of the series: Cytotoxicity, CCK-8 cell viability assay. To be noted: for Cytotoxic activity against H1975 cells at 40 μM: screening (Figure S46); for IC50: Homo sapiens, NCI-H1975, H1975 cells, CCK-8 assay, 24 h drug treatment. The series is classed as cell-based. As for the experimental part: as §1, §2
The next series concerns the target T1, recombinant NAT2 (Homo sapiens, UniProt P11245).
T1 construct: purchased Corning Company, Corning, NY, USA 456282
T1 sequence (P11245 1-290): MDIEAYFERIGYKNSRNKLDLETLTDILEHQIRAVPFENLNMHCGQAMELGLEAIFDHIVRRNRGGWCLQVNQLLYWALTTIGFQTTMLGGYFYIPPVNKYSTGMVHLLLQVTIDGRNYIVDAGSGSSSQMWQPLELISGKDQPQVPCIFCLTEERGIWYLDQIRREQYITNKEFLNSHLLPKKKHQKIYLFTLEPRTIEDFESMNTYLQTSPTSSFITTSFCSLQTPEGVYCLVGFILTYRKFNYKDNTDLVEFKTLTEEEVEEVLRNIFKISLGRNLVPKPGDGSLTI
Nature of the series: N-Acetyltransferase (NAT) inhibition, fluorescent probe assay. The series is classed as biochemical. To be noted: 30 min incubation; for NAT2 inhibition at 10 μM: positive control quercetin 10 μM (Figure 4).

One may read the IC50 as the concentration that inhibits the measured activity by half. As to `CC(C)=CCC/C(C)=C/CC/C(=C/Cc1cc(O)ccc1O)CO` [Compound 5, ganomycin F], in series [1], the “Cytotoxic activity against A549 cells at 40 μM” value is listed as “most active” and the IC50 was 21.6 µM. In series [2], the “Cytotoxic activity against PC9 cells at 40 μM” value is on record as “active” and the concentration for half-maximal inhibition (IC50) is 35.7 µM. Moreover, in series [3], the “Cytotoxic activity against H1975 cells at 40 μM” value is reported as “active” and 19.5 µM corresponded to half-maximal inhibition (IC50).
Take `CC(=O)OC/C(=C\Cc1cc(O)ccc1O)CC/C=C(\C)CCC=C(C)C` [Compound 2, Gancochlearol D]: in series [1], the “Cytotoxic activity against A549 cells at 40 μM” value is “cytotoxic” and the 50% inhibitory concentration (IC50) was found to be 30.7 µM. In series [2], the “Cytotoxic activity against PC9 cells at 40 μM” value is given as “active” and half-maximal inhibition (IC50) was put at 40.6 µM. In series [3], the “Cytotoxic activity against H1975 cells at 40 μM” value is on record as “active” and the IC50 came to 32.4 µM.
As for `C#Cc1cccc(Nc2ncnc3cc(OCCOC)c(OCCOC)cc23)c1` [Erlotinib, reference compound], the values for the IC50 in series [1], in series [2] and in series [3] were 4.59 µM, 0.085 µM and 7.66 µM, respectively.
As for `CC(C)=CCCC(C)=CCCC1=C[C@@](c2cc(O)ccc2O)(c2oc(-c3cc(O)ccc3O)cc2CCC=C(C)CCC=C(C)C)OC1=O` [(−)-1, (−)-gancochlearol C], on recombinant NAT2, the “NAT2 inhibition at 10 μM” value is recorded as “could inhibit NAT2”.
Take `CC(C)=CCCC(C)=CCCC1=C[C@](c2cc(O)ccc2O)(c2oc(-c3cc(O)ccc3O)cc2CCC=C(C)CCC=C(C)C)OC1=O` [(+)-1, (+)-gancochlearol C]: on recombinant NAT2, the “NAT2 inhibition at 10 μM” value is “more potent than quercetin”. Moreover, the IC50 on recombinant NAT2 (0.5-10 μM, read-out: IC50 toward NAT2) worked out at 5.29 µM.

Values taken from paper PMC6100301, “Cytotoxic and N-Acetyltransferase Inhibitory Meroterpenoids from Ganoderma cochlear” (Molecules : A Journal of Synthetic Chemistry and Natural …, 2018).
